In ChEMBL document CHEMBL1201862, “PubChem BioAssay data set” (2004):
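Assay format: 96-well plates, 48-hour exposure. GI50 = concentration required for 50% inhibition of growth.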 Active and inactive are the calls of the source. Cut-off read from the data, not from the text of the source: active = GI50 up to about 1.1 µM and inactive = higher. Where a SMILES comes first, the peptide text is derived from it.

Tests used:
Assay in all cases: NCI tumour cell line growth inhibition, 48 h
A549 = test system: A549
ACHN = test system: ACHN
COLO 205 = test system: COLO 205
EKVX = test system: EKVX
HCT-116 = test system: HCT-116
HCT-15 = test system: HCT-15
K562 = test system: K562
MOLT-4 = test system: MOLT-4
NCI-H522 = test system: NCI-H522
NCI/ADR-RES = test system: NCI/ADR-RES
OVCAR-3 = test system: OVCAR-3
RXF 393 = test system: RXF 393
SK-MEL-2 = test system: SK-MEL-2
SN12C = test system: SN12C
SNB-19 = test system: SNB-19
T47D = test system: T47D
UACC-62 = test system: UACC-62
HCC 2998 = test system: HCC 2998
MDA-MB-435 = test system: MDA-MB-435

Measured: GI50

Oc1ccc(CCNCc2cc3c(cc2Br)OCO3)cc1
inactive: A549 > 100 µM | ACHN 95.5 µM | COLO 205 18.8 µM | EKVX > 100 µM | HCT-116 61.7 µM | K562 34.8 µM | MOLT-4 32.6 µM | NCI-H522 39.4 µM | NCI/ADR-RES 47.5 µM | OVCAR-3 30.1 µM | RXF 393 69.5 µM | SK-MEL-2 21.7 µM | SN12C 66.8 µM | SNB-19 > 100 µM | T47D 41.4 µM | UACC-62 52.7 µM
> 100 µM: HCT-15

CSc1ncnc2c1cnn2CCCCO
> 100 µM: HCT-15
inactive: A549 > 100 µM | ACHN > 100 µM | COLO 205 > 100 µM | EKVX > 100 µM | HCC 2998 > 100 µM | HCT-116 > 100 µM | K562 > 100 µM | MDA-MB-435 > 100 µM | MOLT-4 > 100 µM | NCI-H522 > 100 µM | OVCAR-3 > 100 µM | RXF 393 > 100 µM | SK-MEL-2 > 100 µM | SN12C > 100 µM | SNB-19 > 100 µM | T47D > 100 µM | UACC-62 > 100 µM

CNC(=O)CNC(=O)C(NC(=O)CNC(=O)C1CCCN1C(=O)C(C)NC(=O)C(NC(C)=O)C(C)C)C(C)C (configuration not stated) (Ac-VAPGVG-NHMe; configuration not given here)
> 100 µM: HCT-15
inactive: ACHN > 100 µM | COLO 205 > 100 µM | EKVX > 100 µM | HCC 2998 > 100 µM | HCT-116 > 100 µM | K562 > 100 µM | MDA-MB-435 > 100 µM | MOLT-4 > 100 µM | NCI-H522 > 100 µM | NCI/ADR-RES > 100 µM | OVCAR-3 > 100 µM | SK-MEL-2 > 100 µM | SN12C > 100 µM | SNB-19 > 100 µM | T47D > 100 µM | UACC-62 > 100 µM

NC1CC(=O)c2cc(Br)sc21 (configuration not stated)
inactive: A549 > 100 µM | ACHN > 100 µM | COLO 205 > 100 µM | EKVX > 100 µM | HCC 2998 > 100 µM | HCT-116 > 100 µM | K562 > 100 µM | MDA-MB-435 > 100 µM | MOLT-4 > 100 µM | NCI/ADR-RES > 100 µM | OVCAR-3 > 100 µM | RXF 393 > 100 µM | SK-MEL-2 > 100 µM | SN12C > 100 µM | SNB-19 > 100 µM | T47D > 100 µM | UACC-62 > 100 µM
> 100 µM: HCT-15

COC(=O)C(=O)C(C(=O)C(=O)Nc1ccc([N+](=O)[O-])cc1[N+](=O)[O-])c1nc2ccc(Cl)cc2nc1O (configuration not stated)
inactive: A549 > 100 µM | ACHN > 100 µM | COLO 205 > 100 µM | HCC 2998 > 100 µM | HCT-116 > 100 µM | K562 > 100 µM | MDA-MB-435 > 100 µM | MOLT-4 > 100 µM | NCI/ADR-RES 87.3 µM | OVCAR-3 > 100 µM | RXF 393 65.3 µM | SK-MEL-2 > 100 µM | SN12C > 100 µM | SNB-19 > 100 µM | T47D > 100 µM | UACC-62 > 100 µM
> 100 µM: HCT-15

CC12CP(=O)(c3ccccc3)CC1c1ccccc1C2c1ccccc1 (configuration not stated)
inactive: A549 16.4 µM | ACHN 18 µM | EKVX 17.9 µM | HCC 2998 17.7 µM | HCT-116 14.3 µM | K562 5.9 µM | MDA-MB-435 15.2 µM | MOLT-4 11.4 µM | NCI/ADR-RES 14.2 µM | OVCAR-3 16.7 µM | RXF 393 20.8 µM | SK-MEL-2 28 µM | SN12C 17.9 µM | SNB-19 48 µM | T47D 16.4 µM | UACC-62 29.2 µM
13.7 µM: HCT-15

CC(C)=NN/C(=N\c1ccc(Cl)cc1)NS(=O)(=O)c1cc2ccccc2s1
71.8 µM: HCT-15
inactive: A549 44 µM | COLO 205 46.5 µM | EKVX 12 µM | HCT-116 40.4 µM | K562 23 µM | MDA-MB-435 36.7 µM | MOLT-4 16.6 µM | NCI-H522 38.5 µM | NCI/ADR-RES 51.1 µM | OVCAR-3 57 µM | SK-MEL-2 65.8 µM | SN12C 50.7 µM | SNB-19 > 100 µM | T47D 21.5 µM | UACC-62 > 100 µM

CC(=O)OCC(OC(C)=O)C1C[C@H]2O[C@@H]3[C@H](C[C@H]2O1)O[C@@]1(C[C@@H]3C)C[C@H](C)[C@@H]2O[C@]3(C[C@@H]2O1)C[C@H]1O[C@H]2[C@H](C)[C@H]4OC(=O)CC5CC[C@H]6OC7[C@H]8O[C@]9(CC[C@H]%10CC(O)(CO)[C@H](CC[C@H]%11C[C@@H](C)C(O)(CO)C(C[C@@H]4O[C@H]2C[C@H]1O3)O%11)O%10)CC8O[C@@H]7[C@@H](O9)[C@H]6O5 (some centres not stated)
0.00486 µM: HCT-15
active: A549 0.00643 µM | ACHN 0.0479 µM | COLO 205 0.00445 µM | EKVX 0.0234 µM | HCC 2998 0.00532 µM | HCT-116 0.00438 µM | K562 0.00116 µM | MDA-MB-435 0.000853 µM | MOLT-4 0.0064 µM | NCI-H522 0.000942 µM | NCI/ADR-RES 0.0201 µM | OVCAR-3 0.00655 µM | RXF 393 0.00253 µM | SK-MEL-2 0.116 µM | SN12C 0.0227 µM | SNB-19 0.0194 µM | UACC-62 0.00305 µM

Cc1cc([C@H](C#N)c2nc3ccccc3s2)nc(Cl)n1
3.66 µM: HCT-15
inactive: A549 14.8 µM | ACHN 9.25 µM | COLO 205 2.4 µM | EKVX 18.6 µM | HCC 2998 4.86 µM | HCT-116 3.22 µM | K562 2.75 µM | MDA-MB-435 2.99 µM | MOLT-4 5.5 µM | NCI/ADR-RES 3.08 µM | OVCAR-3 4.84 µM | RXF 393 7.4 µM | SK-MEL-2 4.72 µM | SN12C 3.42 µM | SNB-19 6.7 µM | T47D 2.92 µM | UACC-62 3.65 µM

CC(=O)OCC1OC(n2c(N)c(C#N)c(-c3cccc(Cl)c3)c(C#N)c2=S)C(OC(C)=O)C(OC(C)=O)C1OC(C)=O (configuration not stated)
inactive: A549 24.3 µM | ACHN 29.1 µM | COLO 205 16.2 µM | EKVX 27.2 µM | HCC 2998 10.8 µM | HCT-116 22.4 µM | K562 28.2 µM | MDA-MB-435 15.4 µM | MOLT-4 11.9 µM | NCI/ADR-RES 28.4 µM | OVCAR-3 14.8 µM | RXF 393 3.9 µM | SK-MEL-2 19 µM | SN12C 37.6 µM | SNB-19 31.5 µM | T47D 18.9 µM | UACC-62 26.9 µM
22.5 µM: HCT-15

CO/N=C(\C(=O)[N-]n1cn[n+](CC(=O)OC(C)(C)C)c1)c1csc(NC(c2ccccc2)(c2ccccc2)c2ccccc2)n1
> 10 µM: HCT-15
inactive: A549 > 10 µM | ACHN > 10 µM | COLO 205 > 10 µM | EKVX > 10 µM | HCC 2998 > 10 µM | HCT-116 > 10 µM | K562 > 10 µM | MOLT-4 > 10 µM | NCI-H522 > 10 µM | NCI/ADR-RES > 10 µM | OVCAR-3 > 10 µM | RXF 393 > 10 µM | SK-MEL-2 > 10 µM | SN12C > 10 µM | SNB-19 > 10 µM | T47D > 10 µM

CC(C)=CCN1CC(C)C(=O)Nc2ccccc21 (configuration not stated)
inactive: A549 > 100 µM | ACHN > 100 µM | COLO 205 > 100 µM | EKVX > 100 µM | HCC 2998 > 100 µM | HCT-116 > 100 µM | K562 > 100 µM | MDA-MB-435 > 100 µM | MOLT-4 > 100 µM | NCI-H522 66.8 µM | OVCAR-3 > 100 µM | RXF 393 > 100 µM | SK-MEL-2 > 100 µM | SN12C > 100 µM | SNB-19 > 100 µM | T47D > 100 µM
> 100 µM: HCT-15

Nc1cc(N2CCOCC2)nc(=O)n1-c1ccc(Cl)cc1
inactive: A549 > 100 µM | ACHN > 100 µM | COLO 205 > 100 µM | EKVX > 100 µM | HCC 2998 > 100 µM | HCT-116 > 100 µM | K562 > 100 µM | MDA-MB-435 > 100 µM | MOLT-4 > 100 µM | NCI/ADR-RES > 100 µM | OVCAR-3 > 100 µM | SK-MEL-2 > 100 µM | SN12C > 100 µM | SNB-19 > 100 µM | T47D > 100 µM | UACC-62 > 100 µM
> 100 µM: HCT-15

CC(=O)OCC1OC(n2c(C)c(/N=N/c3ccccc3)c(C)c(C#N)c2=S)C(OC(C)=O)C(OC(C)=O)C1OC(C)=O (configuration not stated)
inactive: A549 57.3 µM | ACHN > 100 µM | COLO 205 86.3 µM | HCC 2998 > 100 µM | HCT-116 16.9 µM | K562 > 100 µM | MDA-MB-435 > 100 µM | MOLT-4 > 100 µM | NCI/ADR-RES 55.3 µM | OVCAR-3 > 100 µM | RXF 393 14.4 µM | SK-MEL-2 24.9 µM | SN12C 81.5 µM | SNB-19 24.2 µM | T47D > 100 µM | UACC-62 14.8 µM

N=c1oc2ccc3ccccc3c2cc1C(N)=O
58.1 µM: HCT-15
inactive: A549 64.6 µM | ACHN 24.9 µM | COLO 205 48.6 µM | HCC 2998 49.3 µM | HCT-116 36.9 µM | MDA-MB-435 53.6 µM | MOLT-4 48.6 µM | NCI/ADR-RES 35.5 µM | OVCAR-3 72.9 µM | RXF 393 > 100 µM | SK-MEL-2 19.4 µM | SN12C 39.8 µM | SNB-19 25.1 µM | T47D 22.6 µM | UACC-62 28 µM
